The nature of data set [1]: Residual magenta coupler M-20 in unexposed strips, raw stock and RA-4 processed. The note with it: coated M-20 32.8 mg/ft^2; for M-20 remaining, Processed after 2wk / M-20 remaining, Processed after 4wk: unexposed strips, standard RA-4 developer; for M-20 remaining, Processed after 2wk / M-20 remaining, Raw Stock after 2wk RT: 2 weeks room temperature; for M-20 remaining, Processed after 4wk / M-20 remaining, Raw Stock after 4wk: 4 weeks room temperature; for M-20 remaining, Raw Stock after 2wk RT / M-20 remaining, Raw Stock after 4wk: unprocessed strips. As for the experimental part: A dispersion of the magenta coupler M-20 and scavenger coupler S-1 were prepared in the following manner:
The oil phase was prepared by combining 1.875 grams of S-1 with 0.852 grams of myrisitc acid and 30 grams of ethyl acetate. The solution was stirred on a hot plate for about 5 minutes.
The aqueous phase was prepared by combining 3.0 grams of a 10% solution of Alkanol XC with 17.6 grams of a 11.36% solution of Type IV gelatin in water. 26.7 grams of distilled water was then added and the solution was stirred on a hot plate for about five minutes.
The aqueous phase was combined with the oil phase and the mixture was stirred. The mixture was then passed three times through a colloid mill to obtain the dispersion. The ethyl acetate was removed by evaporation under reduced pressure. [drawing 42] The dispersions were then coated in the format shown below (the numbers indicate the amount of each component in mg/ft^2).
The coating format also contains a UV protection layer and an overcoat (not shown). Unexposed strips were process in standard RA-4 developer and then stored at room temperature. The strips were analyzed for residual coupler as a function of time. A set of unprocessed strips were stored at room temperature for the same length of time to check for reaction between coupler and S-1 in raw stock. A second set of unexposed strips were processed in standard RA-4 developer and then subjected to two weeks of 50 klux high intensity sunshine radiation after storage at room temperature for two weeks. The change in Status A blue density was measured. […]

The nature of data set [2]: Change in Status A blue density (photochemical yellowing) of processed unexposed strips under high intensity sunshine radiation. The note with it: RA-4 processed, 2 weeks room temperature, then two weeks 50 klux high intensity sunshine. As for the experimental part: The coating format also contains a UV protection layer and an overcoat (not shown). Unexposed strips were process in standard RA-4 developer and then stored at room temperature. The strips were analyzed for residual coupler as a function of time. A set of unprocessed strips were stored at room temperature for the same length of time to check for reaction between coupler and S-1 in raw stock. A second set of unexposed strips were processed in standard RA-4 developer and then subjected to two weeks of 50 klux high intensity sunshine radiation after storage at room temperature for two weeks. The change in Status A blue density was measured.
This coating also contained a UV protection layer and overcoat (not shown). Strips based on the coating were subjected to the same set of tests as in Example 4.

For data set [3] the following is noted: epoxy compound coated in separate layers adjacent to imaging layer; copending application Ser. No. 08/000,431; cited from earlier work.

As for `O=C(OCCCCCCCCCC1CO1)c1ccccc1C(=O)OCCCCCCCCCC1CO1` (centres unmarked) [S-1], in data set [1], the “M-20 remaining, Processed after 2wk” value is given as 29.9 mg/ft.2; the “M-20 remaining, Processed after 4wk” value is listed as 29.3 mg/ft.2; the “M-20 remaining, Raw Stock after 2wk RT” value was determined as 30.2 mg/ft.2; the “M-20 remaining, Raw Stock after 4wk” value is 28.8 mg/ft.2. For the same compound, the “Delta Blue Density” value in data set [2] worked out at 0.13. In data set [3], the “loss of coupler prior to processing” value is “negligible loss of coupler prior to processing”.
`O=C(CCCCCCCCC1CO1)Oc1ccc(NS(=O)(=O)c2ccc(F)cc2F)cc1` (centres unmarked) [SI-20]: in data set [1], the “M-20 remaining, Processed after 2wk” value was determined as 14.9 mg/ft.2; the “M-20 remaining, Processed after 4wk” value is 13.9 mg/ft.2; the “M-20 remaining, Raw Stock after 2wk RT” value is given as 28.6 mg/ft.2; the “M-20 remaining, Raw Stock after 4wk” value was 28.4 mg/ft.2. Further, in data set [2], the “Delta Blue Density” value came to 0.05.

The record behind these values is patent publication US5543276A, “Color photographic element containing new epoxy scavengers for residual magenta coupler” (Eastman Kodak Company, priority 1994, dated 1996).
